Assay results reported in patent US7531505B2, “Compositions and methods for promoting attachment of cells of endothelial cell lineage to medical devices” (Affinergy, Inc., priority 2006, dated 2009).
Where two headings read alike, the source gives them in different places. One block for each substance: values may come before it.

Key:
[1] = tested on: human coronary endothelial cells, porcine coronary endothelial cells, and endothelial progenitor cells; assay: FACS binding of biotin-tagged peptides to cells of endothelial cell lineage in whole blood; type: cell-based, human or Porcine
Procedure: Several of the endothelial-binding domains listed in Table 3 with desirable binding specificities (e.g., SEQ ID NOs: 9-18, 23-28, 30-32, and 35) were further characterized for binding to various cell types in whole blood by FACS, by synthesizing the peptides with a C-terminal biotin tag. Cells were harvested from cell culture flasks using trypsin/EDTA. The cells were neutralized with complete (serum-containing) media and allowed to recover at 37° C. for at least 20 minutes. Each cell type was labeled with its corresponding antibody, as set forth in Table 4, below, and incubated for 20 minutes at room temperature.
The antibody-labeled cells were rinsed twice by centrifugation using washing buffer (HBSS+1% BSA+0.1% sodium azide, sterile-filtered). One hundred (100) μL of whole blood was aliquotted into each well of a deep-well polypropylene plate. Peptides were added to each well to achieve the desired peptide concentration. Minimal volumes of cells (typically 10 μL of cells or approximately 50,000 cells) were added to each well. […] The samples were transferred to an analysis plate and analyzed for cell binding using FACS. In the analysis, controls for each cell type (with relevant antibody as per Table 4, but containing no peptide) were used to assess background fluorescence. […]

[2] = tested on: cells of endothelial cell lineage; assay: Additional assays characterizing binding specificity of endothelial-binding domains (EC50); type: cell-based; conditions: read-out: EC50 of endothelial-binding domain
Description: In some embodiments, a binding domain that binds specifically to a particular surface, material or composition binds at least 10%, 20%, 30%, 40%, 50%, 60%, 70%, 80%, 90%, 100%, 200%, 300%, 400%, 500%, or a higher percentage, than the binding domain binds to an appropriate control such as, for example, a different material or surface, or a protein typically used for such comparisons such as bovine serum albumin. For example, binding specificity can determined by an assay in which quantitated is a signal (e.g., fluorescence, or colorimetric) representing the relative amount of binding between a peptide and target cells, as compared to peptide and non-target cells. […] In a preferred embodiment, the binding domain has binding specificity that is additionally characterized by an EC50 of 10 μM or less, and more preferably less than 1 μM. The EC50 can be determined using any number of methods known in the art, such as by generating a concentration response curve from a binding assay in which the concentration of the peptide is titered with a known amount of material or cells for which the peptide has binding specificity (see, for example, methods described in Examples 2 and 3 herein). In such case, the EC50 represents the concentration of peptide producing 50% of the maximal binding observed for that peptide in the assay. […]

[3] = ELISA of relative binding strength of biotin-tagged peptides to stainless steel stents
Procedure: As a specific illustrative example, nonspecific binding sites in wells containing stainless steel stent material in polystyrene microtiter plates were blocked with a buffer containing 1% bovine serum albumin for 2 hours at room temperature. The wells and stainless steel stent material were then washed three times with PBS-T. The plate was incubated for 1 hour at room temperature with shaking at 50 rpm. Each of 17 different phage display libraries was diluted in PBS+1% BSA and was added at a concentration of 10^10 pfu/ml in a total volume of 250 μl. After a 1 hour incubation at room temperature with shaking at 50 rpm, 70 μl of bovine serum was added, and then the plates were incubated at 37° C. with shaking for 1 hour. Unbound phage were removed by washing 3 time with 300 μl of PBS-T. After the final wash, phage bound to stents were used to infect E. coli cells. The infected cells were incubated in 96 deep-well plates, containing 1 ml of growth medium (e.g., 2xYT+5 μg/ml tetracycline) per well, at 37° C. overnight with shaking. Amplified phage-containing supernatant from each well was harvested by centrifugation. Second, third, and fourth rounds of selection were performed in a similar manner to that of the first round, using 150 μl of amplified phage supernatant from the previous round as input, and diluted with 150 μl of PBS-T+1% BSA. From the fourth round of selection, 340 individual clonal phage were then isolated and tested by plating out dilutions of phage pools to obtain single plaques. To detect phage that specifically bound to a metal such as stainless steel, conventional ELISAs were performed using an anti-M13 phage antibody conjugated to horseradish-peroxidase, followed by the addition of chromogenic agent ABTS (2,2′-azinobis(3-ethylbenzthiazoline-6-sulfonic acid). Relative binding strengths of the phage were determined by testing serial dilutions of the phage for binding to stainless steel in an ELISA, using an anti-M13 phage antibody conjugated to horseradish-peroxidase, followed by the addition of chromogenic agent ABTS, and measuring the absorbance at 405 nm. In the ELISA for determining relative binding strengths, the phage titrations were done in either buffer alone, or buffer containing 20% whole blood. The DNA sequence encoding peptides that specifically bound a metallic surface was determined.
Therefore, to determine if the binding specificity for stainless steel is primarily due to the amino acids in the C-terminal half of the amino acid sequence, or if the N-terminal region also impacts binding, peptides consisting essentially of amino acid sequences illustrated as SEQ ID NO:3 and SEQ ID NO:4 were synthesized. The peptides, as listed in Table 2 as SEQ ID NOs: 1, 3, and 4 were each synthesized with a biotin tag, and then assayed for relative binding strengths by ELISA using similar methods as that used for determining the relative binding strengths of phage displaying the peptides (as previously described herein). In this assay, serial dilutions (ranging from 0 μM to 10 μM) of each of the peptides were incubated with the stainless steel stents, washed with PBS-T, and relative binding specificity was quantitated by detecting the colorometric signal resulting from the reaction of streptavidin-alkaline phosphatase (the streptavidin portion binding to the biotin-labeled peptides) with chromogenic substrate. The EC50 was determined from the titration curve. […]

[4] = ELISA of relative binding strength in buffers from pH 2 to pH 12; conditions: peptide 1 μM, buffers pH 2 to pH 12
Procedure: For determining the effect of pH on binding specificity, the assay for determining relative binding strengths (by ELISA) was performed in the presence of different buffers, varying in pH in a range of from pH 2 to pH 12. For example, a buffer containing glycine and water was adjusted to pH2 using HCl; an acetate buffer was adjusted to pH 4.0 (ionic strength of about 0.001 M); a phosphate buffer (NaH2PO4) was adjusted to pH 6.0 (ionic strength of about 0.012M); a phosphate buffer (NaH2PO4) was adjusted to pH 7.0 (ionic strength of about 0.019M); a tris buffer was adjusted to pH 8.0 (ionic strength of about 0.006M); an ethanolamine buffer was adjusted to pH 10.0 (ionic strength of about 0.003M); and a phosphate buffer (NaH2PO4) was adjusted to pH 12.0 (ionic strength of about 0.044M). The final concentration of each peptide in this assay was 1 μM. Tested in this assay were surface-binding domains comprising a peptide consisting essentially of the amino acid sequence illustrated as SEQ ID NO:3, and the multimers thereof (divalent version (SEQ ID NO:7) and tetravalent version (SEQ ID NO:8)).

endothelial cells = assay: Adherence of endothelial cells to coated stainless steel disks (luminescent ATP read-out); type: cell-based; conditions: coating at 10 μM for 1 hour; 25,000 endothelial cells, 10% bovine serum, 15 minutes; controls uncoated, SEQ ID NO:3 or irrelevant peptide
Procedure: The biofunctional coating composition comprising an amino acid sequence illustrated as SEQ ID NO:47 was then tested for its ability to selectively adhere cells of endothelial cell lineage to a metallic surface of a medical device. In this example, stainless steel disks were used to represent a metallic surface of a medical device. The disks were contacted with a buffered solution containing the biofunctional coating composition at a concentration of 10 μM for 1 hour at room temperature. As controls for non-specific binding, disks were either uncoated, or coated with the surface-binding domain comprising a peptide consisting essentially of an amino acid sequence of SEQ ID NO:3, or an irrelevant peptide (having no known binding specificity for metal or stainless steel or endothelial cells). The disks were washed with PBS, and then 25,000 endothelial cells were added in cell media containing 10% bovine serum, and incubated at room temperature for 15 minutes. The disks were washed in PBS, and the cells were then quantitated using a commercial luminescent cell viability assay system that measures intracellular ATP using a luminescent read-out. The luminescence was detected using a plate reader.

[5] = biotin-tagged peptide, serial dilutions 0 μM to 10 μM, stainless steel stents, read-out: EC50 expressed in nanomoles

EC50 [2]: < 10000 nM
Substance: FYGEVGYVGASLYAGGAS [SEQ ID NO:19]

EC50 [3, 5]: < 250 nM
Substance: NHTISKNHKKKNKNSNKTR [SEQ ID NO:4]

EC50 [3, 5]: < 250 nM
Substance: SGVVDAGVVAEDGVSGEASRSSHRTNHKKNNPKKKNKTR [SEQ ID NO:1]

EC50 [3, 5]: < 50 nM | effect of ethylene oxide sterilization on relative binding specificity for stainless steel ([3]; ethylene oxide 642 mg/L for 2 hours, compared with unsterilized peptide): minimal to no effect | EC50 ([3]; peptide subjected to ethylene oxide sterilization (642 mg/L for 2 hours), read-out: EC50 for binding to stainless steel after ethylene oxide sterilization): < 50 nM | optimum pH for binding [4]: 7.0 pH
Substance: SSHRTNHKKNNPKKKNKTR [SEQ ID NO:3]

Further lines, the substance ahead of its results:

Substance: AGSSSSVSFVAAAGSAV [SEQ ID NO:14]
binding preference between endothelial progenitor cells and endothelial cells [1]: prefer binding to endothelial progenitor cells as compared to endothelial cells

Substance: SEQ ID NO:7 (SSHRTNHKKNNPKKKNKTRGSSHRTNHKKNNPKKKNKTRG)
optimum pH for binding [4]: 7.0 pH

Substance: SSFYGEVGYVGASLYAGGASSRG-PEG-SSHRTNHKKNNPKKKNKTRG [SEQ ID NO:47]
number of endothelial cells bound to coated stainless steel disks compared with controls (endothelial cells): several fold increase

Substance: VVFAASGVAADAGWSVS [SEQ ID NO:32]
binding preference between endothelial progenitor cells and endothelial cells [1]: preference for binding endothelial cells
